Literature values as cited in US20240335458A1, “OPHTHALMIC COMPOSITION FOR THE TREATMENT OF VISUAL DISORDERS” (FOODVICA, S.A. DE C.V., priority 2021, published 2024).

Legend:
[1] = system: protein aggregates obtained from surgically removed cataracts; conditions: 2 mg/ml protein aggregates, 10 µM and 200 μM, 6-day treatment at room temperature
rat lens opacities = conditions: 15 mM lanosterol in liposomes
cataracts = conditions: 14 intravitreal injections of lanosterol nanoparticles (final dose 1.4 mg) plus 50 μL drops 3 times a day for 6 weeks, 7 dogs
[2] = system: age-related cataract human lens nuclei; conditions: 25 mM lanosterol solution, 6 days
[3] = system: natural cataract lens of rabbits; conditions: 25 mM lanosterol, 6 days
[4] = system: sodium selenite-induced cataract

| SMILES | Macroscopic clearing of protein aggregate solutions [1] | Reversal of lens opacities (rat lens opacities) | Reduction of cataract stage (cataracts) | Reversal of opacification of cataract nuclei [2] | Lens clarity before and after treatment [3] | Levels of lipid peroxidation, enzymatic and non-enzymatic antioxidants ([4]; curcumin 75 mg/kg body weight single dose, sodium selenite 15 μM/kg body weight) | aA- and aB-crystallin and Hsp 70 expression ([4]; selenite-induced cataractogenesis) |
| --- | --- | --- | --- | --- | --- | --- | --- |
| C[C@H](CCCC(C)(C)O)[C@H]1CC[C@H]2[C@@H]3CC=C4C[C@@H](O)CC[C@]4(C)[C@H]3CC[C@]12C [25-hydroxycholesterol] | dramatically cleared the originally dark solutions in a dose-dependent way |  |  |  |  |  |  |
| CC(C)=CCC[C@@H](C)[C@H]1CC[C@@]2(C)C3=C(CC[C@]12C)[C@@]1(C)CC[C@H](O)C(C)(C)[C@@H]1CC3 [lanosterol] | dramatically cleared the originally dark solutions in a dose-dependent way | failed to reverse the opacities or prevent progression | reduce up to two degrees the stage of cataracts | did not reverse the opacification | solid trend towards reduction of cataract severity |  |  |
| COc1cc(/C=C/C(=O)CC(=O)/C=C/c2ccc(O)c(OC)c2)ccc1O [curcumin] |  |  |  |  |  | significant reduction | suppressed aA- and aB-crystallin expression induced by selenite and Hsp 70 |
